As usually defined, the AC50 is the concentration at which the activity in the assay is half-maximal. Higher therefore signals activity only at high concentration.

This is an account of results in ChEMBL document CHEMBL5291721, “A preclinical secondary pharmacology resource illuminates target-adverse drug reaction associations of marketed drugs” (Nat Commun, 2023).

Assay [1] has as its target T1, Alpha-2A adrenergic receptor (Homo sapiens, UniProt P08913).
T1 sequence (P08913 whole entry): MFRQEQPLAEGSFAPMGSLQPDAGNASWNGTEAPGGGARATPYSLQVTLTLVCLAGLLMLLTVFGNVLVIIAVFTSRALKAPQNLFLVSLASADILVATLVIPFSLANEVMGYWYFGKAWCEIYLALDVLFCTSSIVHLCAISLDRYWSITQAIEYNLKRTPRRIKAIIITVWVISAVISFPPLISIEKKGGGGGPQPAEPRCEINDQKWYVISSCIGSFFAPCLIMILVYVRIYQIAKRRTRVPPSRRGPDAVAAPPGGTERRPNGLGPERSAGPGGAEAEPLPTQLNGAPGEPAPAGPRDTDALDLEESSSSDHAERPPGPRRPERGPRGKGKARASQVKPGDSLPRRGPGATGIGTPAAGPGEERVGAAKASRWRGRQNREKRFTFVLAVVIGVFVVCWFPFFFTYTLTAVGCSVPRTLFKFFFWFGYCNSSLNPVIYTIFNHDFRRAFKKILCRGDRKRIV
It counts as functional, cell-based.

In another assay the target is Melanocortin receptor 3 (Homo sapiens, UniProt P41968).
Another assay concerns the target T2, Adenosine receptor A3 (Homo sapiens, UniProt P0DMS8).
T2 sequence (P0DMS8 whole entry): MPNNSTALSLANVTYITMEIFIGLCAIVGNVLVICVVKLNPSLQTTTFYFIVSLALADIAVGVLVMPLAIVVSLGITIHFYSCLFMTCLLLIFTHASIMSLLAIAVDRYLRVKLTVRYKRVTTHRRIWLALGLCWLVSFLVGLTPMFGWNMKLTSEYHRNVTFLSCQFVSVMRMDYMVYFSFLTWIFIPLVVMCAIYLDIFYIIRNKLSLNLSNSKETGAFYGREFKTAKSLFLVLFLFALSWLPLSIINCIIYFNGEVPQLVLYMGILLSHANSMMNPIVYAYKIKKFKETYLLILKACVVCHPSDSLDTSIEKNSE

Assay [2] concerns the target Delta-type opioid receptor (Homo sapiens, UniProt P41143).
The target in a further assay is T3, Thromboxane A2 receptor (Homo sapiens, UniProt P21731).
T3 sequence (P21731 whole entry): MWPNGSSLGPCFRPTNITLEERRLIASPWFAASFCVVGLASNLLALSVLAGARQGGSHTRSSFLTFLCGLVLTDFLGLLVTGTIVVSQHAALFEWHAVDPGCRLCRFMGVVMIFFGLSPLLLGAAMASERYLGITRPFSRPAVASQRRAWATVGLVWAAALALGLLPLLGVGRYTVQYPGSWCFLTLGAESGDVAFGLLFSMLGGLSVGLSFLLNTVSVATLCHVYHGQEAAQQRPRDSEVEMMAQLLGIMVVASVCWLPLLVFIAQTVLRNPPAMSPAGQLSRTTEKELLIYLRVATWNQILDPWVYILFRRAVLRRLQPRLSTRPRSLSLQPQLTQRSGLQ

In assay [3] the target is Beta-2 adrenergic receptor (Homo sapiens, UniProt P07550).
For assay [4], the target named is Sodium-dependent noradrenaline transporter (Homo sapiens, UniProt P23975).
For assay [5], the target named is T4, 5-hydroxytryptamine receptor 1A (Homo sapiens, UniProt P08908).
T4 sequence (P08908 whole entry): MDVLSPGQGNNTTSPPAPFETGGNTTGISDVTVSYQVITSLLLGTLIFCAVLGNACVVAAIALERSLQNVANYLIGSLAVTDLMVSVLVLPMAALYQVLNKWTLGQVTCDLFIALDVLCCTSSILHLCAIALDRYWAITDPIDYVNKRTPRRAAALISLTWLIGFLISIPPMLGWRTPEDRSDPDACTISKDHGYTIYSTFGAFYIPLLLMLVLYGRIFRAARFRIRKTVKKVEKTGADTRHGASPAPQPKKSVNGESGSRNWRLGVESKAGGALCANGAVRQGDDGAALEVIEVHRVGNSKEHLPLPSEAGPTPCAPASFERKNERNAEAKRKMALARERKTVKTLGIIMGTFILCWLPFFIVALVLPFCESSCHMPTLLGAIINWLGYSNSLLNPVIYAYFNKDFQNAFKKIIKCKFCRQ
It counts as functional, cell-based.

Another assay deals with Motilin receptor (Homo sapiens, UniProt O43193).
The next assay addresses T5, Estrogen receptor (Homo sapiens, UniProt P03372).
T5 sequence (P03372 whole entry): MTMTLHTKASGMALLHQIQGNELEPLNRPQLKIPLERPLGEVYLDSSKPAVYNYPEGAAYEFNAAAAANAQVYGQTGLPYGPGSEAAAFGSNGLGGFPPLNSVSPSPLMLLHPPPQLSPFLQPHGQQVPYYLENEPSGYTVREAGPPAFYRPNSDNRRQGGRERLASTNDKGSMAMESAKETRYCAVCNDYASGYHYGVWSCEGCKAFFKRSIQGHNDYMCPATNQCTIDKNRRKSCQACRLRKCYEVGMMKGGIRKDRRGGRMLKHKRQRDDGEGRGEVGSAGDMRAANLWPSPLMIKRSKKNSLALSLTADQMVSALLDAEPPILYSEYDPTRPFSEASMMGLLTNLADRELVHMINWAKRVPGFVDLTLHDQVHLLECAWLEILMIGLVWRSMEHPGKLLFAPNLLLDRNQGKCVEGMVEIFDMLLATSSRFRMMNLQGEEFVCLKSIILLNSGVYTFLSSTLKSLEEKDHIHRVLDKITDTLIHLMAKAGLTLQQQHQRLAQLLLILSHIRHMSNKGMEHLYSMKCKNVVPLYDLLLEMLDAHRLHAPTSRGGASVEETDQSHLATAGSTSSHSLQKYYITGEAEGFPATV

Assay [6] has as its target 3',5'-cyclic-AMP phosphodiesterase 4D (Homo sapiens, UniProt Q08499). It counts as functional.
The next assay deals with T6, Endothelin-1 receptor (Homo sapiens, UniProt P25101).
T6 sequence (P25101 whole entry): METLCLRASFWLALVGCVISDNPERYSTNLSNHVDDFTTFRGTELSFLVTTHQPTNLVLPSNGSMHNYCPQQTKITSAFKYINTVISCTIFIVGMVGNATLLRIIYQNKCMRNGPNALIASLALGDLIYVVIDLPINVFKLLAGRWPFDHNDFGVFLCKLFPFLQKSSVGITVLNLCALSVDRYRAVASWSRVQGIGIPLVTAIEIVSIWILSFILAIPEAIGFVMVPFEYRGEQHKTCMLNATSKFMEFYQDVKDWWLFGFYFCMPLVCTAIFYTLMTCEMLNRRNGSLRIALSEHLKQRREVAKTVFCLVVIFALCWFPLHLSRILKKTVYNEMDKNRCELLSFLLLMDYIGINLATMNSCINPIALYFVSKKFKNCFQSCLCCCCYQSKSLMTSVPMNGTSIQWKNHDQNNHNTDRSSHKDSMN
Note: assay procedure not described here.

Sequence of Sodium-dependent noradrenaline transporter (P23975 whole entry): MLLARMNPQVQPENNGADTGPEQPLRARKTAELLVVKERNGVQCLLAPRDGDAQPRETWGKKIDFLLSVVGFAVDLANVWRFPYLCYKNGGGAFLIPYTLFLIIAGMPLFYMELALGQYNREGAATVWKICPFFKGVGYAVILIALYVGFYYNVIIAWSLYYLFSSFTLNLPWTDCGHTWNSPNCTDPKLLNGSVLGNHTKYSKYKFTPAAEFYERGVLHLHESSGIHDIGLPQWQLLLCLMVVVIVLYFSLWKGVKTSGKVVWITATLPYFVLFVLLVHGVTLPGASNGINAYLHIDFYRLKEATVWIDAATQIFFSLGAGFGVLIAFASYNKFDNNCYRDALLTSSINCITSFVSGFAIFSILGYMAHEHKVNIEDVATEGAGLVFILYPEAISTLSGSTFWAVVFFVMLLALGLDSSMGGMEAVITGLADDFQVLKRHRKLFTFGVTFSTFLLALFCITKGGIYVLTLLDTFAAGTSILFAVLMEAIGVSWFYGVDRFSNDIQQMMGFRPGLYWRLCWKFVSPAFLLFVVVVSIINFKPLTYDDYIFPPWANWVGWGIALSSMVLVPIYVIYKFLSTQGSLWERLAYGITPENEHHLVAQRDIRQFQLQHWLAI
Sequence of Beta-2 adrenergic receptor (P07550 whole entry): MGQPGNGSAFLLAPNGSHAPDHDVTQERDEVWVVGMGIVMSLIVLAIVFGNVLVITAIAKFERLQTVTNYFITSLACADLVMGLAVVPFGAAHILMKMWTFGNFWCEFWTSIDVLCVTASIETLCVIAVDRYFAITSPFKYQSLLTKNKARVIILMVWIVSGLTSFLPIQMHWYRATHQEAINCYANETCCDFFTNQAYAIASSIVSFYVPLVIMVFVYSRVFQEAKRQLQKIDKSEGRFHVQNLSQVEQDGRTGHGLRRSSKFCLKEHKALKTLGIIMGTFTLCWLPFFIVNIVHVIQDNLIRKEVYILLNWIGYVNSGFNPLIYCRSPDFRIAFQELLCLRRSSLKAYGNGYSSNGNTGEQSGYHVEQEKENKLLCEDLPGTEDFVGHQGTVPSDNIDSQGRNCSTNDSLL
Sequence of Delta-type opioid receptor (P41143 whole entry): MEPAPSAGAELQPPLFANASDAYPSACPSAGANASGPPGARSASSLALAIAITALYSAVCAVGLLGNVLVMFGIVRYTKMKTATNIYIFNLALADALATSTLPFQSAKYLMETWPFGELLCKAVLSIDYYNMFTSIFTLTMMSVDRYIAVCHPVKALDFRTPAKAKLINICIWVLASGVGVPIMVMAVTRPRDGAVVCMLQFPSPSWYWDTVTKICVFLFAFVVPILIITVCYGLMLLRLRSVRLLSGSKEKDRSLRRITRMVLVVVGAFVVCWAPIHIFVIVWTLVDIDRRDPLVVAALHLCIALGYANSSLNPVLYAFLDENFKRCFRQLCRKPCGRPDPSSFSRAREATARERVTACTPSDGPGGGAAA
Sequence of 3',5'-cyclic-AMP phosphodiesterase 4D (Q08499 whole entry): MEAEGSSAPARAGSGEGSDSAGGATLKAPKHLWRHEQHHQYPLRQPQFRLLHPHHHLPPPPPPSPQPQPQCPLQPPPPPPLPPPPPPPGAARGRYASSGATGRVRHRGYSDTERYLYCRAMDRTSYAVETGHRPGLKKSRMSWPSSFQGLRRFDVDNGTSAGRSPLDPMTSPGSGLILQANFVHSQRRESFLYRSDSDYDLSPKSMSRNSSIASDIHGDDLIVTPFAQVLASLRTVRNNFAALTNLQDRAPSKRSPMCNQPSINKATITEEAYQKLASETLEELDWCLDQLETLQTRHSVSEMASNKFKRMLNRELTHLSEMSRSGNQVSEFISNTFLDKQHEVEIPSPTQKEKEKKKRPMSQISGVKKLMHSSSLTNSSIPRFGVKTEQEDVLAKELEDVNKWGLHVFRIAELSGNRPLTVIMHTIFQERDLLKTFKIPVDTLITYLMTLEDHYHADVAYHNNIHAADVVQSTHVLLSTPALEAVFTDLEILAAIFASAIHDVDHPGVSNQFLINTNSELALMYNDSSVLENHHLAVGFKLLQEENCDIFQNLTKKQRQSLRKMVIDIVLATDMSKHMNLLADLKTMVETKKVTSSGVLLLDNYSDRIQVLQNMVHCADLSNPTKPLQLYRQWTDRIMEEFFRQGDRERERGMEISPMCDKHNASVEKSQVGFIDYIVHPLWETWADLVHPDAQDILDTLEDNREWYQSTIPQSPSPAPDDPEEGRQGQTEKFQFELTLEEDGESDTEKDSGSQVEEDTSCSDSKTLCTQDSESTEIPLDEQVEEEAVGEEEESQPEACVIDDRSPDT
Sequence of Motilin receptor (O43193 whole entry): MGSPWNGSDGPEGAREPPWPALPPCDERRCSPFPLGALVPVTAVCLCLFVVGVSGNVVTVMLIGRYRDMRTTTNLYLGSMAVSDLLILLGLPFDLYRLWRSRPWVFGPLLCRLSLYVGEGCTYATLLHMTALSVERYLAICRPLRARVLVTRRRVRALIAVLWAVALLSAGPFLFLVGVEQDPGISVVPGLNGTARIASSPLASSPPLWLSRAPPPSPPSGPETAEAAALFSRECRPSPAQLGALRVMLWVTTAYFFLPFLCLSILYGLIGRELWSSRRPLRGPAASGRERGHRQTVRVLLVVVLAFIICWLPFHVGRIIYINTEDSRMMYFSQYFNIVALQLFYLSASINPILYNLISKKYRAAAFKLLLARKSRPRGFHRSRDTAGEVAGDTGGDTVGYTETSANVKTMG
Sequence of Melanocortin receptor 3 (P41968 whole entry): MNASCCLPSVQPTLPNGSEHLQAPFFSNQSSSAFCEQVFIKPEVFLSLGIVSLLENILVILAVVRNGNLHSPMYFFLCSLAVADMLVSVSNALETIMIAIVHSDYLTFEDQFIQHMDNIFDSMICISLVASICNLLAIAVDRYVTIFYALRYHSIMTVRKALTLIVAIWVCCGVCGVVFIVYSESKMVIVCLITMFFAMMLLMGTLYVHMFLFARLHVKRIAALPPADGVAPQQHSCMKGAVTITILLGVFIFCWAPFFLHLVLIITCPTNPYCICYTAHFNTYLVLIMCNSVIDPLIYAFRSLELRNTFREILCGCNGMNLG

Regarding `COC(=O)N[C@@H](C)CNc1nccc(-c2cn(C(C)C)nc2-c2cc(Cl)cc(NS(C)(=O)=O)c2F)n1` [ENCORAFENIB], the concentration at half-maximal activity (AC50) (in [1]; at Melanocortin receptor 3; at Adenosine receptor A3; in assay [2]; on Thromboxane A2 receptor; in assay [3]) was more than 30 µM throughout. The AC50 in assay [4] was more than 30 µM; in assay [5], more than 30 µM; at Motilin receptor, more than 30 µM; at Estrogen receptor it was more than 30 µM; in [6], 4.4 µM.
With `Clc1ccc2c(c1)C(c1ccccc1)=NCc1nncn1-2` [ESTAZOLAM], the AC50 is more than 10 µM in assay [1]; more than 30 µM on Melanocortin receptor 3; more than 30 µM at Adenosine receptor A3; more than 30 µM in [2]; more than 30 µM at Thromboxane A2 receptor; more than 10 µM in assay [3]. Moreover, the AC50 was more than 30 µM in assay [4]; more than 10 µM in assay [5]; more than 10 µM on Motilin receptor; more than 30 µM on Estrogen receptor; 10 µM in assay [6].
For the molecule `Nc1nc(F)nc2c1ncn2[C@@H]1O[C@H](COP(=O)(O)O)[C@@H](O)[C@@H]1O` [FLUDARABINE PHOSPHATE], the AC50 (in assay [1]; at Melanocortin receptor 3; at Adenosine receptor A3; in assay [2]; at Thromboxane A2 receptor; in assay [3]) was more than 30 µM throughout. The AC50 (in assay [4]; in [5]; at Motilin receptor; on Estrogen receptor; in assay [6]) was more than 30 µM each time.
`Nc1ccn([C@@H]2O[C@H](CO)[C@@H](O)C2(F)F)c(=O)n1` [GEMCITABINE]: the half-maximal activity concentration (AC50) in assay [1] is more than 10 µM; at Melanocortin receptor 3 it was more than 30 µM; at Adenosine receptor A3, more than 30 µM; in assay [2], more than 30 µM; at Thromboxane A2 receptor it was more than 30 µM; in assay [3] it was more than 30 µM. Moreover, the AC50 was more than 30 µM in [4]; more than 10 µM in assay [5]; more than 10 µM at Motilin receptor; more than 30 µM on Estrogen receptor; 16 µM in assay [6].
`CC(=O)Nc1c(I)c(C(=O)N[C@H]2C(O)O[C@H](CO)[C@@H](O)[C@@H]2O)c(I)c(N(C)C(C)=O)c1I` (stereo not given in full) [METRIZAMIDE]: the concentration at half-maximal activity (AC50) in [1] is more than 10 µM; at Melanocortin receptor 3 it was more than 10 µM; on Adenosine receptor A3, more than 10 µM; in assay [2], more than 30 µM; at Thromboxane A2 receptor it was more than 10 µM; in [3], more than 10 µM. For the same molecule, the concentration at half-maximal activity (AC50) is more than 10 µM in [4]; more than 10 µM in assay [5]; more than 10 µM at Motilin receptor; more than 10 µM at Estrogen receptor; more than 30 µM in assay [6].
Regarding `CC(=O)O[C@H]1C[C@@H]2CC[C@@H]3[C@H](CC[C@@]4(C)[C@H]3C[C@H]([N+]3(C)CCCCC3)[C@@H]4OC(C)=O)[C@@]2(C)C[C@@H]1[N+]1(C)CCCCC1` [PANCURONIUM], the AC50 in assay [1] is more than 10 µM; on Melanocortin receptor 3, more than 10 µM; on Adenosine receptor A3 it was more than 10 µM; in assay [2] it was more than 30 µM; at Thromboxane A2 receptor, more than 10 µM; in assay [3], more than 10 µM. Besides, the AC50 in assay [4] was more than 10 µM; in assay [5], more than 10 µM; on Motilin receptor, more than 10 µM; on Estrogen receptor, more than 10 µM; in assay [6], more than 30 µM.
For `CC1(C)C(C=C(Cl)Cl)C1C(=O)OCc1cccc(Oc2ccccc2)c1` (stereo not given) [PERMETHRIN], the AC50 was more than 10 µM in [1]; more than 10 µM on Melanocortin receptor 3; more than 10 µM on Adenosine receptor A3; more than 30 µM in [2]; more than 10 µM on Thromboxane A2 receptor; more than 10 µM in assay [3]. In addition, the concentration at half-maximal activity (AC50) in [4] was more than 10 µM; in assay [5], more than 10 µM; at Motilin receptor it was more than 10 µM; on Estrogen receptor, more than 30 µM; in assay [6], more than 30 µM.
As to `NC(=O)CCC/N=C(\c1ccc(Cl)cc1)c1cc(F)ccc1O` [PROGABIDE], the AC50 in [1] is more than 10 µM; at Melanocortin receptor 3 it was more than 10 µM; on Adenosine receptor A3, more than 10 µM; in assay [2], more than 30 µM; on Thromboxane A2 receptor, more than 10 µM; in [3], more than 10 µM. Also, the AC50 (in assay [4]; in assay [5]; on Motilin receptor; on Estrogen receptor; in [6]) was more than 10 µM in each case.
In the case of `Cc1ccc2c(-c3ccccc3)nc(=O)n(C(C)C)c2c1` [PROQUAZONE], the AC50 at Endothelin-1 receptor was more than 30 µM; in assay [1], more than 30 µM; on Melanocortin receptor 3, more than 30 µM; at Adenosine receptor A3 it was 23 µM; in assay [2], 30 µM; at Thromboxane A2 receptor, 11 µM. Besides, the AC50 in [3] was more than 30 µM; in assay [4], more than 30 µM; at Motilin receptor it was more than 30 µM; on Estrogen receptor, more than 30 µM; in assay [6], 0.81 µM.
Consider `Cc1cccc(N(C)C(=S)Oc2ccc3ccccc3c2)c1` [TOLNAFTATE], for which the concentration at half-maximal activity (AC50) is more than 10 µM in assay [1]; more than 10 µM at Melanocortin receptor 3; more than 10 µM at Adenosine receptor A3; more than 30 µM in assay [2]; more than 10 µM on Thromboxane A2 receptor; more than 10 µM in assay [3]. Besides, the concentration at half-maximal activity (AC50) in assay [4] is more than 10 µM; in assay [5], more than 10 µM; on Motilin receptor it was more than 10 µM; on Estrogen receptor it was more than 30 µM; in [6], more than 30 µM.
